# In the supplement of paper PMC10307832:
# How the values were obtained:
# Assay in all cases: relative viability (nuclei count vs DMSO), 5 days (fraction); higher = more cells survive
# RO-3306 + Olaparib = compound: C1=CC2=C(C=CC(=C2)C=C3C(=O)NC(=NCC4=CC=CS4)S3)N=C1 [RO-3306] + O=C(c1cc(Cc2n[nH]c(=O)c3ccccc23)ccc1F)N1CCN(C(=O)C2CC2)CC1 [Olaparib] (partner 8 µM)
# Summary of the method: (§1)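 Medians of duplicate plates are given as relative viability. That measure is the nuclei count in treated wells divided by the count in vehicle wells. Counts were taken on 4× images of lung cancer cell lines in 1536-well plates, 5 days after pin-tool dosing the day after seeding with one drug alone or a fixed anchor-drug dose plus five library-drug doses (not always all listed) in √10 steps.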
# [1] = compound: O=S(=O)(c1ccccc1)N(CC(F)(F)F)c1ccc(C(O)(C(F)(F)F)C(F)(F)F)cc1 + Cc1nc(Nc2ncc(C(=O)Nc3c(C)cccc3Cl)s2)cc(N2CCN(CCO)CC2)n1 [Dasatinib] (partner 0.075 µM)
# Summary of the method: as §1
# [2] = compound: O=S(=O)(c1ccccc1)N(CC(F)(F)F)c1ccc(C(O)(C(F)(F)F)C(F)(F)F)cc1 + CC(=O)Nc1cccc(-n2c(=O)n(C3CC3)c(=O)c3c(Nc4ccc(I)cc4F)n(C)c(=O)c(C)c32)c1 [Trametinib] (partner 0.02 µM)
# Summary of the method: as §1
# RO-3306 + Luminespib = compound: C1=CC2=C(C=CC(=C2)C=C3C(=O)NC(=NCC4=CC=CS4)S3)N=C1 [RO-3306] + CCNC(=O)c1noc(-c2cc(C(C)C)c(O)cc2O)c1-c1ccc(CN2CCOCC2)cc1 [Luminespib] (partner 0.01 µM)
# Summary of the method: as §1
Cell Line,relative viability (RO-3306 + Olaparib; first compound 0.01 µM),relative viability (RO-3306 + Olaparib; first compound 0.03162 µM),relative viability (RO-3306 + Olaparib; first compound 0.1 µM),relative viability (RO-3306 + Olaparib; first compound 0.3162 µM),relative viability (RO-3306 + Olaparib; first compound 1 µM),relative viability ([1]; first compound 0.8 µM),relative viability ([1]; first compound 2.53 µM),relative viability ([1]; first compound 8 µM),relative viability ([2]; first compound 0.8 µM),relative viability ([2]; first compound 2.53 µM),relative viability ([2]; first compound 8 µM),relative viability (RO-3306 + Luminespib; first compound 0.01 µM),relative viability (RO-3306 + Luminespib; first compound 0.03162 µM),relative viability (RO-3306 + Luminespib; first compound 0.1 µM),relative viability (RO-3306 + Luminespib; first compound 0.3162 µM),relative viability (RO-3306 + Luminespib; first compound 1 µM)
SK-MES-1,0.805,0.671,0.601,0.677,0.665,0.318,0.332,0.255,0.546,0.573,0.59,0.708,0.973,0.705,0.605,0.968
H3255,0.608,0.513,0.595,0.558,0.505,0.292,0.309,0.362,0.623,0.565,0.649,0.899,0.938,0.763,0.837,0.866
NCI-H2087,0.626,0.476,0.671,0.723,0.656,0.72,0.713,0.74,0.26,0.173,0.2,0.196,0.175,0.149,0.23,0.17
NCI-H1666,0.749,0.749,0.693,0.685,0.729,0.765,0.68,0.683,0.902,0.845,0.704,0.929,0.883,1.05,1.05,0.891
SK-LU-1,0.425,0.415,0.458,0.663,0.425,0.161,0.166,0.177,0.466,0.537,0.491,0.184,0.194,0.179,0.202,0.166
NCI-H727,0.666,0.722,0.844,0.724,0.621,0.408,0.302,0.325,0.358,0.368,0.375,0.244,–,0.453,0.906,0.3
NCI-H1755,0.973,0.902,0.867,0.839,0.953,0.373,0.368,0.429,0.769,0.661,0.815,0.435,0.3,0.275,0.269,0.484
NCI-H1650,0.933,0.718,0.809,0.784,0.656,0.343,0.316,0.389,0.513,0.645,0.53,0.183,0.217,0.2,0.227,0.224
HARA,0.795,–,0.764,0.632,0.763,0.294,0.287,0.242,0.561,–,0.634,0.485,0.509,0.676,0.455,0.679
NCI-H1944,0.443,0.439,0.346,0.414,0.433,0.222,0.233,0.191,0.448,0.389,0.432,0.83,0.667,0.681,0.62,0.678
RERF-LC-KJ,0.888,0.902,0.837,0.835,1.08,0.753,0.652,0.641,0.812,0.721,0.663,1.15,1.41,1.17,1.45,0.99
NCI-H647,0.86,0.212,0.487,0.686,0.623,0.142,0.162,0.208,0.587,0.379,0.352,0.234,0.121,0.122,0.174,0.322
NCI-H838,0.894,0.562,0.768,0.808,0.869,0.273,0.303,0.325,0.604,0.474,0.596,0.523,0.274,0.24,0.316,0.221
NCI-H2170,0.658,0.589,0.631,0.546,0.509,0.568,0.588,0.444,0.973,0.779,0.814,0.485,0.803,0.419,0.669,0.639
COR-L 105,0.661,0.798,0.633,0.715,0.601,0.299,0.4,0.363,0.39,0.424,0.382,1.07,0.885,0.606,0.65,0.547
HOP-62,0.606,0.476,0.168,0.406,0.678,0.716,0.552,0.544,0.391,0.297,0.355,1.02,0.926,0.976,0.925,0.894
A-427,0.81,0.813,0.705,0.778,0.652,0.737,0.653,0.846,0.722,0.645,0.682,0.94,0.867,0.928,0.884,1
PC-14,0.298,0.232,0.235,0.227,0.237,0.265,0.213,0.106,0.705,0.554,0.477,0.251,0.147,0.161,0.139,0.15
NCI-H1648,0.679,–,0.927,0.767,0.885,–,–,–,0.628,0.369,0.44,–,–,–,–,–
NCI-H1437,0.628,0.564,0.614,0.588,0.619,0.327,0.297,0.287,0.538,0.36,0.432,1.17,1.02,1.09,1.11,1.17
